Source: the supplement of paper PMC10883282

Tests used:
Assay in all cases: standardised AUC of viability dose-response curve (72 h) (fraction (0-1)); higher = less growth inhibition (more resistant)
G401 = system: G401
Summary of the method: (§1)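 Sarcoma cell lines in 384-well plates were treated in triplicate for 72 h with 2.5 µl of compound dilution series (compound-plate series 10 mM to 0.0002 mM, 1:3 steps). ATPLite viability was scaled 1 (full) to 0 (none) and fitted per drug and cell line with a four-parameter log-logistic model. The standardised area under the dose-response curve in log-dose space (modified drexplorer computeAUC) runs from 1 (no response) to 0 (full response).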

SYO-1 = system: SYO-1
Summary of the method: as §1

HS729 = system: HS729
Summary of the method: as §1

A204 = system: A204
Summary of the method: as §1

SW684 = system: SW684
Summary of the method: as §1

SW982 = system: SW982
Summary of the method: as §1

SW1353 = system: SW1353
Summary of the method: as §1

RD = system: RD
Summary of the method: as §1

HT1080 = system: HT1080
Summary of the method: as §1

KHOS-NP = system: KHOS-NP
Summary of the method: as §1

SK-ES-1 = system: SK-ES-1
Summary of the method: as §1

MES-SA = system: MES-SA
Summary of the method: as §1

KHOS-240S = system: KHOS-240S
Summary of the method: as §1

VA-ES-BJ = system: VA-ES-BJ
Summary of the method: as §1

RD-ES = system: RD-ES
Summary of the method: as §1

SW872 = system: SW872
Summary of the method: as §1

SK-LMS-1 = system: SK-LMS-1
Summary of the method: as §1

Compound	standardised AUC (G401)	standardised AUC (SYO-1)	standardised AUC (HS729)	standardised AUC (A204)	standardised AUC (SW684)	standardised AUC (SW982)	standardised AUC (SW1353)	standardised AUC (RD)	standardised AUC (HT1080)	standardised AUC (KHOS-NP)	standardised AUC (SK-ES-1)	standardised AUC (MES-SA)	standardised AUC (KHOS-240S)	standardised AUC (VA-ES-BJ)	standardised AUC (RD-ES)	standardised AUC (SW872)	standardised AUC (SK-LMS-1)
COc1cccc2c1C(=O)c1c(O)c3c(c(O)c1C2=O)C[C@@](O)(C(=O)CO)C[C@@H]3O[C@H]1C[C@H](N)[C@H](O)[C@H](C)O1 [DOXORUBICIN]	0.577	0.47	0.638	0.532	0.796	0.537	0.669	0.609	0.6	0.694	0.439	0.496	0.588	0.574	0.472	0.655	0.672
CCc1cc2c(cc1N1CCC(N3CCOCC3)CC1)C(C)(C)c1[nH]c3cc(C#N)ccc3c1C2=O [ALECTINIB]	0.997	1	1	1	1	0.989	1	0.99	0.991	0.989	0.993	1	0.967	0.949	1	1	0.985
CC[C@H](Nc1ncnc2[nH]cnc12)c1nc2cccc(F)c2c(=O)n1-c1ccccc1 [IDELALISIB]	0.931	0.949	0.905	0.939	0.761	0.971	0.897	0.982	0.99	0.978	0.963	0.957	0.968	0.934	0.968	0.937	0.919
Cn1cc(-c2cc3c(N4CCN(c5ncc([C@@](C)(N)c6ccc(F)cc6)cn5)CC4)ncnn3c2)cn1 [AVAPRITINIB]	0.913	0.745	0.941	0.727	0.977	0.948	0.927	0.978	0.971	0.917	0.953	0.937	0.927	0.972	0.956	0.946	0.954
Cc1cnc(Nc2ccc(OCCN3CCCC3)cc2)nc1Nc1cccc(S(=O)(=O)NC(C)(C)C)c1 [FEDRATINIB]	0.784	0.685	0.756	0.746	0.825	0.677	0.779	0.763	0.86	0.886	0.691	0.756	0.766	0.768	0.733	0.754	0.847
Cc1ccc(NC(=O)c2ccc(CN3CCN(C)CC3)cc2)cc1Nc1nc(-c2cccnc2)cs1 [MASITINIB]	0.848	0.749	0.884	0.702	0.873	0.876	0.857	0.902	0.902	0.89	0.881	0.869	0.853	0.897	0.871	0.874	0.907
CC(C)(C)c1cc(NC(=O)Nc2ccc(-c3cn4c(n3)sc3cc(OCCN5CCOCC5)ccc34)cc2)no1 [QUIZARTINIB]	0.958	0.879	0.939	0.745	0.966	0.992	0.978	0.977	0.964	0.964	0.924	0.93	0.954	0.976	0.989	0.986	0.94
C=CC(=O)N1CCC([C@@H]2CCNc3c(C(N)=O)c(-c4ccc(Oc5ccccc5)cc4)nn32)CC1 [ZANUBRUTINIB]	0.977	0.974	0.964	0.957	0.97	0.941	0.934	0.966	0.987	1	0.977	0.981	0.976	0.973	0.974	0.941	1
CNC(=O)c1cc(Oc2ccc(NC(=O)Nc3ccc(Cl)c(C(F)(F)F)c3)c(F)c2)ccn1 [REGORAFENIB]	0.874	0.816	0.873	0.768	0.992	0.96	0.958	0.91	0.96	0.856	0.943	0.934	0.936	0.977	0.974	0.93	0.904
CN1CCC(COc2cnc(-c3cccc(Cn4nc(-c5cccc(C#N)c5)ccc4=O)c3)nc2)CC1 [TEPOTINIB]	0.978	0.945	0.928	0.985	0.983	0.985	0.987	0.998	0.972	0.954	0.97	0.98	0.963	0.898	0.979	0.972	0.732
COc1c(OCCCN2CCOCC2)ccc2c1N=C(NC(=O)c1cnc(N)nc1)N1CCN=C21 [COPANLISIB]	0.654	0.655	0.583	0.516	0.569	0.609	0.675	0.556	0.83	0.802	0.483	0.474	0.693	0.568	0.472	0.541	0.617
